Measurements from article PMC9792171, “Design and synthesis of new thiazolidinone/uracil derivatives as antiproliferative agents targeting EGFR and/or BRAF^V600E” (Frontiers in Chemistry, 2022).

Columns and labels:
[1] = tested on: MCF-7 (breast cancer cell line); test: Antiproliferative MTT assay, MCF-7; format: cell-based; conditions: Homo sapiens, MCF7; MCF-7, MTT; read-out: Antiproliferative activity IC50 ± SEM (nM) MCF-7
Experimental: (§1) Using the MTT assay ([Abdelrahman et al., 2017]; [El-Sherief et al., 2018]) and doxorubicin as the reference drug, 3a-f and 5a-l were tested for antiproliferative activity against four human cancer cell lines: Panc-1 (pancreas cancer cell line), MCF-7 (breast cancer cell line), HT-29 (colon cancer cell line), and A-549 (epithelial cancer cell line).
(§2) To explore the antiproliferative potential of compounds MTT assay was performed according to previously reported procedure (El-Sherief, H.A.M., et al., 2018; Abdelrahman, M. H., et al., 2017) using different cell lines to explore the antiproliferative potential of compounds propidium iodide fluorescence assay was performed using different cell lines. To calculate the total nuclear DNA, a fluorescent dye (propidium iodide, PI) is used which can attach to the DNA, thus offering a quick and precise technique. PI cannot pass through the cell membrane and its signal intensity can be considered as directly proportional to quantity of cellular DNA. Cells whose cell membranes are damaged or have changed permeability are counted as dead ones. The assay was performed by seeding the cells of different cell lines at a density of 3000-7500 cells/well (in 200µl medium) in culture plates followed by incubation for 24h at 37 °C in humidified 5% CO2/95% air atmospheric conditions. The medium was removed; the compounds were added to the plates at 10 µM concentrations (in 0.1% DMSO) in triplicates, followed by incubation for 48 h. DMSO (0.1%) was used as control. After incubation, medium was removed followed by the addition of PI (25 µl, 50µg/mL in water/medium) to each well of the plates. At -80 °C, the plates were allowed to freeze for 24 h, followed by thawing at 25 °C. A fluorometer (Polar-Star BMG Tech) was used to record the readings at excitation and emission wavelengths of 530 and 620 nm for each well. The percentage cytotoxicity of compounds was calculated using the following formula: […]

[2] = tested on: HT-29 (colon cancer cell line); test: Antiproliferative MTT assay, HT-29; format: cell-based; conditions: Homo sapiens; HT-29, MTT; read-out: Antiproliferative activity IC50 ± SEM (nM) HT-29
Experimental: as §1, §2

[3] = tested on: Panc-1 (pancreas cancer cell line); test: Antiproliferative MTT assay, Panc-1; format: cell-based; conditions: Homo sapiens; Panc-1, MTT; read-out: Antiproliferative activity IC50 ± SEM (nM) Panc-1
Experimental: as §1, §2

[4] = tested on: four human cancer cell lines (A-549, MCF-7, Panc-1, HT-29); test: Antiproliferative MTT assay, average of four cancer cell lines (GI50); format: cell-based; conditions: for IC50: Homo sapiens, average of A-549, MCF-7, Panc-1, HT-29
Experimental: as §1, with “line). […]” for “line).”
as §2

EGFR = target: T1, EGFR (Homo sapiens, UniProt P00533); test: EGFR inhibitory assay (EGFR-TK, DELFIA/time-resolved fluorometry); format: biochemical; conditions: for IC50: read-out: EGFR inhibition IC50 ± SEM
T1 construct: EGFR cytoplasmic domain (EGFR-CD, amino acids 645–1186); His6 (N); made in house; host or cells: Sf-9 insect cells (baculovirus; pBlueBacHis2B and pFASTBacHTc)
T1 sequence (P00533 669-1210): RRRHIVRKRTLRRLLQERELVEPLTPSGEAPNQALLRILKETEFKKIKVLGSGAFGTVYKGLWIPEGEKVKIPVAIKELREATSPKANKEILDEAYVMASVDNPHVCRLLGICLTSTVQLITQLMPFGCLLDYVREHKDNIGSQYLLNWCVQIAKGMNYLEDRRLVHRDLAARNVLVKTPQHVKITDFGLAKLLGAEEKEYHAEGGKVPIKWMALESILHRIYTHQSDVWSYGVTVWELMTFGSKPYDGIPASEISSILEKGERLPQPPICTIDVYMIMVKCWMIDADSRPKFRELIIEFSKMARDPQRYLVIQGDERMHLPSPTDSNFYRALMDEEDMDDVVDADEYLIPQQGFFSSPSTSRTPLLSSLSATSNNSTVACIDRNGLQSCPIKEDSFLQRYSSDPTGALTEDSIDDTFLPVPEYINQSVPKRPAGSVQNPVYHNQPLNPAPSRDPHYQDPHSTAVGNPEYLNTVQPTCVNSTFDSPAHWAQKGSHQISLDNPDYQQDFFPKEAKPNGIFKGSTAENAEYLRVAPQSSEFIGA
Experimental: 5ʹ upstream to the EGFR sequence comprised a sequence that encoded (His)6. Sf-9 cells were infected for 72h for protein expression. The pellets of Sf-9 cells were solubilized in a buffer containing sodium vanadate (100 µM), aprotinin (10 µg/mL), triton (1%), HEPES buffer (50mM), ammonium molybdate (10 µM), benzamidine HCl (16 µg/mL), NaCl (10 mM), leupeptin (10 µg/mL) and pepstatin (10 µg/mL) at 0°C for 20 min at pH 7.4, followed by centrifugation for 20 min. To eliminate the non-specifically bound material, a Ni-NTA super flow packed column was used to pass through and wash the crude extract supernatant first with 10 mM and then with 100 mM imidazole. Histidine-linked proteins were first eluted with 250 and then with 500 mM imidazole after dialysis against NaCl (50 mM), HEPES (20 mM), glycerol (10%) and 1 µg/mL each of aprotinin, leupeptin and pepstatin for 120 min. The purification was performed either at 4 °C or on ice. To record autophosphorylation level, EGFR kinase assay was carried out based on DELFIA/Time-Resolved Fluorometry. The compounds were first dissolved in DMSO absolute, after dilution to appropriate concentration using HEPES (25 mM) at pH 7.4. Each compound (10 µL) was incubated with recombinant enzyme (10 µL, 5 ng for EGFR, 1:80 dilution in 100 mM HEPES) for 10 min at 25 °C, after the addition of 5X buffer (10 µL, containing 2 mM MnCl2, 100 µM Na3VO4, 20 mM HEPES and 1 mM DTT) and ATP-MgCl2 (20 µL, containing 0.1 mM ATP and 50 mM MgCl2) and incubation for 1h. The negative and positive controls were included in each plate by the incubation of enzyme either with or without ATP-MgCl2. The liquid was removed after incubation and the plates were washed thrice using wash buffer. Europium-tagged antiphosphotyrosine antibody (75 µL, 400 ng) was added to each well followed by incubation of 1h and then washing of the plates using buffer. The enhancement solution was added to each well and the signal was recorded at excitation and emission wavelengths of 340 at 615 nm. The autophosphorylation percentage inhibition by compounds was calculated using the following equation: […]

[5] = tested on: A-549 (epithelial cancer cell line); test: Antiproliferative MTT assay, A-549; format: cell-based; conditions: Homo sapiens, A549; A-549, MTT; read-out: Antiproliferative activity IC50 ± SEM (nM) A-549
Experimental: as §1, §2

| SMILES | IC50 [1] [nM] | IC50 [2] [nM] | IC50 [3] [nM] | IC50 [4] [nM] | IC50 (EGFR) [nM] | IC50 [5] [nM] | fold less potent than erlotinib (EGFR IC50) (EGFR; ratio of EGFR IC50 values) [fold] | fold less potent than compound 5j (GI50) ([4]; ratio of GI50 values) [fold] |
| --- | --- | --- | --- | --- | --- | --- | --- | --- |
| COC(=O)/C=C1\S/C(=N\c2c[nH]c(=O)[nH]c2=O)N(c2ccc(C)cc2)C1=O [Compound 5h, (Z)-Methyl-2-((Z)-2-((2,4-dioxo-1,2,3,4-tetrahydropyrimidin-5-yl)imino)-4-oxo-3-(p-tolyl)-thiazolidin-5-ylidene)acetate] | 1700 ± 100 | 1700 ± 100 | 1800 ± 100 | 1650 | 112 ± 10 | 1400 ± 100 | – | – |
| CCOC(=O)/C=C1\S/C(=N\c2c[nH]c(=O)[nH]c2=O)N(c2cccc(OC)c2)C1=O [Compound 5c, (Z)-Ethyl-2-((Z)-2-((2,4-dioxo-1,2,3,4-tetrahydropyrimidin-5-yl)imino)-3-(3-methoxyphenyl)-4-oxo-thiazolidin-5-ylidene)acetate] | 1600 ± 100 | 1800 ± 100 | 1900 ± 200 | 1700 | 115 ± 10 | 1500 ± 100 | – | – |
| COc1cccc(NC(=S)Nc2c[nH]c(=O)[nH]c2=O)c1 [Compound 3c, 1-(2,4-Dioxo-1,2,3,4-tetrahydropyrimidin-5-yl)-3-(3-methoxyphenyl)thiourea] | 1400 ± 100 | 2100 ± 200 | 2100 ± 200 | 1850 | 125 ± 11 | 1800 ± 200 | 1.6 | – |
| CCOC(=O)/C=C1\S/C(=N\c2c[nH]c(=O)[nH]c2=O)N(c2ccc(C)cc2)C1=O [Compound 5b, (Z)-Ethyl-2-((Z)-2-((2,4-dioxo-1,2,3,4-tetrahydropyrimidin-5-yl)imino)-4-oxo-3-(p-tolyl)thiazolidin-5-ylidene)acetate] | 1100 ± 100 | 1400 ± 100 | 1400 ± 100 | 1300 | 91 ± 7 | 1200 ± 100 | – | 1.2 |

More lines, now with the values ahead:

| IC50 [1] [nM] | IC50 [2] [nM] | IC50 [3] [nM] | IC50 [4] [nM] | IC50 (EGFR) [nM] | IC50 [5] [nM] | fold less potent than erlotinib (EGFR IC50) (EGFR; ratio of EGFR IC50 values) [fold] | fold less potent than compound 5j (GI50) ([4]; ratio of GI50 values) [fold] | SMILES |
| --- | --- | --- | --- | --- | --- | --- | --- | --- |
| 900 ± 100 | 1200 ± 100 | 1200 ± 100 | 1100 | 87 ± 5 | 1100 ± 100 | – | – | COC(=O)/C=C1\S/C(=N\c2c[nH]c(=O)[nH]c2=O)N(Cc2ccccc2)C1=O [Compound 5j, (Z)-Methyl-2-((Z)-3-benzyl-2-((2,4-dioxo-1,2,3,4-tetrahydropyrimidin-5-yl)imino)-4-oxothiazolidin-5-ylidene)acetate] |
| 1000 ± 80 | 1600 ± 100 | 1500 ± 100 | 1350 | 96 ± 7 | 1300 ± 100 | – | – | COC(=O)/C=C1\S/C(=N\c2c[nH]c(=O)[nH]c2=O)N(c2cccc(OC)c2)C1=O [Compound 5i, (Z)-Methyl-2-((Z)-2-((2,4-dioxo-1,2,3,4-tetrahydropyrimidin-5-yl)imino)-3-(3-methoxyphenyl)-4-oxothiazolidin-5-ylidene)acetate] |
